Experimental data published in US20220202792A1, “METHODS AND COMPOSITIONS FOR TREATING CHRONIC INFLAMMATORY INJURY, METAPLASIA, DYSPLASIA AND CANCERS OF EPITHELIAL TISSUES” (University of Houston System, priority 2019, published 2022).
pIC50: −log10 of the molar value.

How the values were obtained:
[1] = tested on: esophageal squamous stem cells (ESO stem cells, Krt5+); assay: High throughput chemical screening and dose response on GFP-labeled stem cells; type: cell-based, human; conditions: in the presence of 1 μM Ponatinib
[2] = tested on: Barrett's stem cells and esophageal squamous stem cells xenograft; assay: Mouse xenograft of co-injected esophageal squamous and GFP labeled Barrett's stem cells; type: in vivo, mice
Source text: The effect of these chemicals on BE in a xenograft model was further examined. The esophageal squamous stem cells and GFP labeled Barrett's stem cells were mixed and co-injected into the immunodeficient mice. […] Two weeks following the treatment, the xenografts were collected and examined through histology analysis and clonogenic analysis.

JMJD2B (KDM4B) = molecular target: T1, JMJD2B (KDM4B) (Homo sapiens, UniProt O94953); conditions: demethylase activity in vitro; cited from earlier work
T1 sequence (O94953 1-1096): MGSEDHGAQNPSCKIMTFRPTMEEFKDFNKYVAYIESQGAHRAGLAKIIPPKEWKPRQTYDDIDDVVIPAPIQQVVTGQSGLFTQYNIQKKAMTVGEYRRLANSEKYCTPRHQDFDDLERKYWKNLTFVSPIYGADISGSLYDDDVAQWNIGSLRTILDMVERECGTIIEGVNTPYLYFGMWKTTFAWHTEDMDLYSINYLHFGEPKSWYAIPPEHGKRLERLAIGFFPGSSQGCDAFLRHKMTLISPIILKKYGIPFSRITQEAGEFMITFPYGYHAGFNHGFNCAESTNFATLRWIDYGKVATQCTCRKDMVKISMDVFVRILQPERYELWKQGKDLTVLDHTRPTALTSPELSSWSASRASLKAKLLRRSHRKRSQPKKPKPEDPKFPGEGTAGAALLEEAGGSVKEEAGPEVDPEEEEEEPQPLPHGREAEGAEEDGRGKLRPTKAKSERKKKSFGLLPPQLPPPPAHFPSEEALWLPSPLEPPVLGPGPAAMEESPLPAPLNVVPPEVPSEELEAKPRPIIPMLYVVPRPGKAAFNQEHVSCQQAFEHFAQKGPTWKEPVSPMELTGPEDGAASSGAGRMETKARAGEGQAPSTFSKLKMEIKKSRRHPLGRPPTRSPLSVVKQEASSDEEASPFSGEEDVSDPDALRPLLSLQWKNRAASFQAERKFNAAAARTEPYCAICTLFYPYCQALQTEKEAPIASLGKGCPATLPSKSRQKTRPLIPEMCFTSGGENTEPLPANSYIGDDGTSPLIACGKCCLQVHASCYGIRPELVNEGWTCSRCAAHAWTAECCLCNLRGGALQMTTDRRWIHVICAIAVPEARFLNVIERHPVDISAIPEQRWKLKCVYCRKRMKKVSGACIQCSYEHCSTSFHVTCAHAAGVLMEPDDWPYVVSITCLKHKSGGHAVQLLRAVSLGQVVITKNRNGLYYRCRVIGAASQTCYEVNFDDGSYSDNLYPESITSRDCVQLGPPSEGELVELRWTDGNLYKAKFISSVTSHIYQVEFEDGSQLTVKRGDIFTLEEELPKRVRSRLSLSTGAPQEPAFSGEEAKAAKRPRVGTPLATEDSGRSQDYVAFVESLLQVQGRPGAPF

[3] = tested on: dysplasia and cancer stem cells; assay: Mice xenografted with dysplasia and cancer stem cells; type: in vivo; conditions: with Ponatinib
Source text: FIG. 5C. Schematic of in vivo validation of drug combinations in mice xenografted with dysplasia and cancer stem cells. Following the treatment, the xenografts were processed for histological analysis or clonogenic assays to detect the existence of stem cells.

For `Clc1ccc(N/N=C(\c2ccccc2)c2ccccn2)nc1` [JIB04], the “effect on Esophageal stem cells” value [1] was “without affecting”, the “BE stem cells in treated structures (histological analysis)” value ([2]; NSG mice, with Ponatinib) was “not detected” and the “Krt5+ ESO structures in treated samples” value ([2]; NSG mice, with Ponatinib) was “visibly more robust”. The “clonogenic Barrett's stem cells from xenografts” value ([2]; combination with Ponatinib, clonogenic analysis) was “lack of clonogenic Barrett's stem cells”, the “Barrett's structures in xenografts (histology)” value ([2]; combination with Ponatinib, intraperitoneally, two weeks following the treatment) was “total loss” and the pIC50 (JMJD2B (KDM4B)) was ~6.36. For the same molecule, the “Dysplastic structures (Krt7+/Ki67+) in xenografts” value [3] was “diminished”, the “eradication of precancerous, dysplastic and cancerous stem cells in mouse xenograft models” value [3] was “eradicate” and the “stem cells cloned from treated dysplastic structures (rhodamine staining)” value [3] was “not cloned”.
